The record followed here is patent US10441562B2, “Aromatic farnesyl compound and application thereof” (INSTITUTE OF MICROBIOLOGY, CHINESE ACADEMY OF SCIENCES, priority 2015, dated 2019).

This test deals with hyperglycemia KK-A^y mice. As to the kind of experiment: liver tissue section of hyperglycemia KK-A^y mice (HE). In kind it is in vivo. The note with it: FIG. 1, 10 and 20 mg/kg. As for the experimental part: Detect the fasting glucose of male KK-A^y mice, which are 6-8 weeks with the weight of 28-32 g, and divide them into different groups according to the blood sugar level and body weight: (2) model control group, (3) which is administered by compound S13 with the dose of 1 mg/kg, (4) which is administered by compound S13 with the dose of 5 mg/kg, (5) which is administered by compound S13 with the dose of 10 mg/kg, (6) which is administered by compound S13 with the dose of 20 mg/kg, (7) which is administered by compound S28 with the dose of 1 mg/kg, (8) which is administered by compound S28 with the dose of 5 mg/kg, (9) which is administered by compound S28 with the dose of 10 mg/kg, (10) which is administered by compound S28 with the dose of 20 mg/kg, (11) which is administered by metformin with the dose of 8 g/kg, (12) which is administered by compound S13 with the dose of 2.5 mg/kg and metformin with the dose of 4 g/kg, (13) which is administered by compound S13 with the dose of 5 mg/kg and metformin with the dose of 4 g/kg, (14) which is administered by compound S28 with the dose of 2.5 mg/kg and metformin with the dose of […], (15) which is administered by compound S28 with the dose of 5 mg/kg and metformin with the dose of […]. Each group has 8 mice, and is administrated successively for 3 weeks. Model control group is given with equal amounts of 0.5% CMC-Na. […]

As for `CC(C)=CCC/C(C)=C/CCC1=C[C@H](c2cc(O)ccc2O)OC1=O` [S13, (R,E)-5-(2,5-dihydroxyphenyl)-3-(4,8-dimethylnona-3,7-dien-1-yl)furan-2(5H)-one], the “fat vacuole in hepatocyte (liver tissue section, HE)” value was “almost disappear”.
The result for `CC(C)=CCC/C(C)=C/CCC1=C[C@@H](c2cc(O)ccc2O)OC1=O` [S28, (S,E)-5-(2,5-dihydroxyphenyl)-3-(4,8-dimethylnona-3,7-dien-1-yl)furan-2(5H)-one] reads “almost disappear”.
